According to patent publication US20250296938A1, “Compounds that Interact with the Ras Superfamily for the Treatment of Cancers, Inflammatory Diseases, Rasopathies, and Fibrotic Disease” (SHY Therapeutics, LLC, priority 2018, published 2025):

Experiments:
MAPK phosphorylation [1] = assay: Western MAPK cell-based phosphorylation assay, NCI H1975; settings: Homo sapiens; for inhibition at 10 µM: 6 hours, EGF stimulation
Experimental: (§1) Cell lines: Human NSCLC cells NCI-H1975 and NCI-H1299, and tumor-derived pancreatic cancer cell lines Panc-1, MIA-PaCa-2, and BxPC3, were all purchased from American Type Culture Collection and grown in complete RPMI medium (BxPC3, NCI-H1975 and NCI-H1299) or DMEM-High Glucose (Panc1 and MIA-PaCa-2), supplemented with penicillin (100 U/mL), streptomycin (100 μg/mL), and 10% heat-inactivated FBS at 37° C. in a humidified incubator with 5% CO2.
(§2) Method: Cells were plated at 350000 cells/well density in a 12-well plate, allowed 3 hours to adhere to the plate, then starved in the appropriate medium in the presence of 0.5% FBS overnight. The small molecules to be tested were added to the cells in the final concentration of 10 μM in the presence of 0.3% DMSO for 6 hours incubation at 37° C. For IC50 value determination, serial dilutions of compounds were added to cells under the same conditions. Next, cells were stimulated with 1.5 ng/ml EGF for 15 minutes then cells were lysed with lysis buffer containing 1% Triton X-100, EDTA, and Halt™ Protease & Phosphatase Inhibitor Cocktail (Thermo Scientific). Protein concentration was assessed by BCA protein assay (Thermo Scientific). Phosphorylation level of MAPK was determined by western blot.
(§3) Western blot protocol: Equal amounts of protein (15-50 μg) were separated by SDS-PAGE and transferred to nitrocellulose membranes (Invitrogen by Thermo Fisher Scientific). The membrane was stained with Ponceau S Stain (Boston BioProducts) to verify uniform protein loading. Membranes were blocked with 10% milk and phosphorylation levels of MAPK were assessed by incubating overnight at 4° C. with anti-phospho-p44/42 (Thr202/Tyr204) antibody (Cell Signaling) followed by HRP-conjugated secondary antibody (Jackson Immunoresearch, West Grove, PA). Bands were incubated in Amersham ECL Prime Western Blotting Detection Reagent (GE Healthcare) and visualized using the ChemiDoc MP imaging system (Bio-Rad).

MAPK phosphorylation [2] = assay: Western MAPK cell-based phosphorylation assay, BxPC3; settings: Homo sapiens; for inhibition at 10 µM: BXPC-3, 10 μM, 6 hours, EGF stimulation
Experimental: as §1, §2, §3

MAPK phosphorylation [3] = assay: Western MAPK cell-based phosphorylation assay, NCI H1299; settings: Homo sapiens; for inhibition at 10 µM: 6 hours, EGF stimulation
Experimental: as §1, §2, §3

MAPK phosphorylation [4] = assay: Western MAPK cell-based phosphorylation assay, MIA PaCa-2; settings: Homo sapiens; for inhibition at 10 µM: 6 hours, EGF stimulation
Experimental: as §1, §2, §3

AKT phosphorylation = assay: Western AKT cell-based phosphorylation assay, PANC-1; settings: Homo sapiens, 6 hours, EGF stimulation, PANC-1
How it was run: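 PANC-1 cells, serum-starved overnight in 0.5% FBS, were treated with compound at 10 μM (0.3% DMSO) for 6 h at 37 °C and then stimulated with 1.5 ng/ml EGF for 15 min. Lysates (15–50 μg) were immunoblotted for phospho-Akt Ser473, with ECL detection.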

MAPK phosphorylation [5] = assay: MAPK cell-based phosphorylation assay (ELISA or Western), PANC-1; settings: Homo sapiens, PANC-1; for inhibition at 10 µM: 6 hours, EGF stimulation
How it was run: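 Serum-starved (0.5% FBS overnight) cells given compound at 10 μM or serial dilutions (0.3% DMSO) for 6 h at 37 °C, then 1.5 ng/mL EGF for 15 min. Phospho-MAPK read by fixed-cell ELISA (fluorescence, 595 nm) or by Western blot of lysates with anti-phospho-p44/42 (Thr202/Tyr204).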

[6] = system: BxPC3 pancreatic cancer cell line; assay: Cell proliferation assay (DAPI); assay type: cell-based; settings: Homo sapiens, BXPC-3
How it was run: (§4)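 NCI-H1975 cells in RPMI; PANC-1 and MIA PaCa-2 in DMEM-high glucose; BxPC3 in RPMI; all with 10% FBS. Compounds at 10 µM final (or serial dilutions for IC50), 0.3% DMSO, 2–4 days at 37 °C. Fixed, DAPI-stained, fluorescence read at 358/461 nm to give proliferation inhibition.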

[7] = system: PANC-1 pancreatic cancer cell line; assay: Cell proliferation assay (DAPI); assay type: cell-based; settings: Homo sapiens
How it was run: as §4

[8] = system: MIA PaCa-2 pancreatic cancer cell line; assay: Cell proliferation assay (DAPI); assay type: cell-based; settings: Homo sapiens, MIA PaCa-2; for inhibition at 10 µM: 2-4 days, read-out: % Inhibition of cell proliferation, MIA PaCa-2 % inh
How it was run: as §4

[9] = system: NCI H1299 non-small-cell lung cancer cell line; assay: Cell proliferation assay (DAPI); assay type: cell-based; settings: Homo sapiens
[10] = system: NCI H1975 non-small-cell lung cancer cell line; assay: Cell proliferation assay (DAPI); assay type: cell-based; settings: Homo sapiens
How it was run: as §4

IC50 [6] [nM] | IC50 [7] [nM] | IC50 [8] [nM] | SMILES | inhibition at 10 µM (MAPK phosphorylation [1]) [%] | inhibition at 10 µM (MAPK phosphorylation [2]) [%] | inhibition at 10 µM (MAPK phosphorylation [3]) [%] | inhibition at 10 µM (MAPK phosphorylation [4]) [%] | inhibition at 10 µM (AKT phosphorylation) [%] | inhibition at 10 µM (MAPK phosphorylation [5]) [%] | inhibition at 10 µM [8] [%] | IC50 [9] [nM] | IC50 [10] [nM] | other results
– | – | – | CO[C@H]1CCC(Nc2nc(-c3nccn3C)nc3sc(-c4ccn(C)n4)c(-c4ccccc4)c23)C1 (stereo partly shown) [drawing 406] | 76 to 100 | 76 to 100 | 76 to 100 | 76 to 100 | 76 to 100 | 76 to 100 | – | – | – | –
– | – | – | CO[C@@H]1CCC(Nc2nc(-c3nccn3C)nc3sc(-c4ccn(C)n4)c(-c4ccccc4)c23)C1 (stereo partly shown) [drawing 407] | 26 to 50 | 0 | 26 to 50 | 0 | 0 | 76 to 100 | – | – | – | –
– | – | – | COCC1CCN(c2nc(-c3nccn3C)nc3sc(-c4ccn(C)n4)c(-c4ccccc4)c23)C1 (stereo not shown) [drawing 408] | – | – | 26 to 50 | – | 0 | 76 to 100 | – | – | – | –
– | – | – | COCCNc1nc(-c2nccn2C)nc2sc(-c3ccccc3Cl)c(-c3ccc(OC)cc3)c12 [drawing 418] | 0 | 0 | 0 | 76 to 100 | 0 | 76 to 100 | – | – | – | –
– | – | – | COCCNc1nc(-c2nccn2C)nc2sc(-c3cccc(OC)c3)c(-c3ccc(OC)cc3)c12 [drawing 419] | 76 to 100 | 0 | 0 | 76 to 100 | 0 | 76 to 100 | – | – | – | –
– | – | – | COCCNc1nc(-c2nccn2C)nc2sc(-c3cccc(OC)c3Cl)c(-c3ccc(OC)cc3)c12 [drawing 420] | 76 to 100 | 1 to 25 | 0 | 76 to 100 | 26 to 50 | 76 to 100 | – | – | – | –
– | – | – | COCCNc1nc(-c2cn(C)cn2)nc2sc(-c3ccccc3Cl)c(-c3ccc(OC)cc3)c12 [drawing 422] | 76 to 100 | 26 to 50 | 0 | 76 to 100 | 0 | 76 to 100 | – | – | – | –
– | – | – | COCCNc1nc(-c2nccn2C)nc2sc(-c3cccc(OC)c3Cl)c(-c3ccccc3)c12 [drawing 425] | 76 to 100 | 76 to 100 | 76 to 100 | 76 to 100 | 76 to 100 | 76 to 100 | – | – | – | –
– | – | – | COCCNc1nc(-c2nccn2C)nc2sc(-c3cccc(OC)c3Cl)c(-c3ccccc3)c12 [drawing 472] | – | – | – | – | – | – | – | – | – | IC50 (MAPK phosphorylation [1]): > 1000 nM; IC50 (MAPK phosphorylation [2]; BXPC-3): > 1000 nM; IC50 (MAPK phosphorylation [3]): > 1000 nM; IC50 (MAPK phosphorylation [4]): 750 to 1000 nM; IC50 (MAPK phosphorylation [5]): 750 to 1000 nM
– | – | – | CO[C@H]1CCC(Nc2nc(-c3nccn3C)nc3sc(-c4ccn(C)n4)c(-c4ccccc4)c23)C1 (stereo partly shown) [drawing 474] | – | – | – | – | – | – | – | – | – | IC50 (MAPK phosphorylation [1]): > 1000 nM; IC50 (MAPK phosphorylation [4]): > 1000 nM; IC50 (MAPK phosphorylation [5]): 750 to 1000 nM
750 to 1000 | 750 to 1000 | > 1000 | COCCCNc1nc(-c2nccn2C)nc2sc(-c3ccn(C)n3)c(-c3ccccc3)c12 [drawing 542] | – | – | – | – | – | – | 76 to 100 | – | – | –
750 to 1000 | 750 to 1000 | > 1000 | COCC(C)Nc1nc(-c2nccn2C)nc2sc(-c3ccn(C)n3)c(-c3ccccc3)c12 (stereo not shown) [drawing 544] | – | – | – | – | – | – | 76 to 100 | – | – | –
> 1000 | 750 to 1000 | > 1000 | COC1CCN(c2nc(-c3nccn3C)nc3sc(-c4ccn(C)n4)c(-c4ccccc4)c23)C1 (stereo not shown) [drawing 545] | – | – | – | – | – | – | 76 to 100 | – | – | –
> 1000 | > 1000 | > 1000 | Cn1ccc(-c2sc3nc(-c4nccn4C)nc(NCC4CCOC4)c3c2-c2ccccc2)n1 (stereo not shown) [drawing 547] | – | – | – | – | – | – | 76 to 100 | – | – | –
500 to 749 | 500 to 749 | 500 to 749 | CO[C@H]1CCC(Nc2nc(-c3nccn3C)nc3sc(-c4ccn(C)n4)c(-c4ccccc4)c23)C1 (stereo partly shown) [drawing 548] | – | – | – | – | – | – | 76 to 100 | 750 to 1000 | 500 to 749 | –
750 to 1000 | 750 to 1000 | 750 to 1000 | CO[C@@H]1CCC(Nc2nc(-c3nccn3C)nc3sc(-c4ccn(C)n4)c(-c4ccccc4)c23)C1 (stereo partly shown) [drawing 549] | – | – | – | – | – | – | 76 to 100 | 750 to 1000 | 750 to 1000 | –
750 to 1000 | 500 to 749 | 750 to 1000 | COCC1CCN(c2nc(-c3nccn3C)nc3sc(-c4ccn(C)n4)c(-c4ccccc4)c23)C1 (stereo not shown) [drawing 550] | – | – | – | – | – | – | 76 to 100 | > 1000 | > 1000 | –
– | – | – | COCC(C)Nc1nc(-c2nccn2C)nc2sc(-c3ccccc3Cl)c(-c3cscn3)c12 (stereo not shown) [drawing 556] | – | – | – | – | – | – | 76 to 100 | > 1000 | > 1000 | –
– | 750 to 1000 | – | COCC(C)Nc1nc(-c2nccn2C)nc2sc(-c3cccc(OC)c3)c(-c3cscn3)c12 (stereo not shown) [drawing 558] | – | – | – | – | – | – | 76 to 100 | > 1000 | > 1000 | –
750 to 1000 | 500 to 749 | 750 to 1000 | COCCNc1nc(-c2nccn2C)nc2sc(-c3cccc(OC)c3Cl)c(-c3ccc(OC)cc3)c12 [drawing 562] | – | – | – | – | – | – | 76 to 100 | 750 to 1000 | 750 to 1000 | –
